Where two headings read alike, the source gives them in different places.
B1: fetuin: sialoprotein, highly purified bovine fetuin (protein, UniProt P12763 19-359, looked up)
Alpha-2-HS-glycoprotein: IPLDPVAGYKEPACDDPDTEQAALAAVDYINKHLPRGYKHTLNQIDSVKVWPRRPTGEVYDIEIDTLETTCHVLDPTPLANCSVRQQTQHAVEGDCDIHVLKQDGQFSVLFTKCDSSPDSAEDVRKLCPDCPLLAPLNDSRVVHAVEVALATFNAESNGSYLQLVEISRAQFVPLPVSVSVEFAVAATDCIAKEVVDPTKCNLLAEKQYGFCKGSVIQKALGGEDVRVTCTLFQTQPVIPQPQPDGAEAEAPSAVPDAAGPTPSAAGPPVASVVVGPSVVAVPLPLHRAHYDLRHTFSGVASVESSSGEAFHVGKTPIVGQPSIPGGPVRLCPGRIRYFKI

What was measured:
[1] = tested on: purified LFA (sialic acid specific slug lectin); assay: Inhibition of hemagglutination by purified LFA; type: cell-based, Limax flavus; settings: for Inhibition (%) Purified LFA: 0.34 μg purified LFA per assay; for IC50: read-out: Concentration giving 50% inhibition of hemagglutination, affinity purified LFA; for Ability to inhibit hemagglutination by purified slug lectin (in words): some 17 carbohydrates tested, concentrations as high as 10-25 mM
Description: (§1) Hemagglutination Assay: Aliquots of lectin were adjusted to 0.5 ml by addition of tris-saline buffer which contained 0.4 mg/ml gelatin. To this was added 0.5 ml of a solution containing human erythrocytes that had been washed several times with 0.9% NaCl and whose absorbance at 620 nm was ~2. After standing at room temperature for 30 min. the cells were gently pelleted by centrifugation in a Dynac centrifuge. The cells were resuspended by shaking and allowed to stand for 5 min. in order to permit aggregating cells to settle. The absorbance at 620 nm of the upper one-half ml of the erythrocyte suspension was measured and the data were plotted as A620 versus μg or μl of lectin. One unit of activity is defined as the amount of LFA which gave a 50% agglutination. Percent agglutination was calculated as follows: [formula]
(§2) A 0.5 ml aliquot of erythrocytes was added to the lectin plus inhibitor solution and the percent agglutination determined as described above. The percent inhibition of agglutination represents the difference between the percent agglutination with lectin alone and that obtained with lectin plus inhibitor.

[2] = tested on: AS-40-80 fraction (partially purified LFA); assay: Inhibition of hemagglutination by partially purified LFA (AS-40-80 fraction); type: cell-based, Limax flavus; settings: for Inhibition (%) AS-40-80 Fraction: 20 μg protein of AS-40-80 per assay
Description: as §1, §2

slug lectin = assay: Double diffusion of slug lectin in agar gel against sialoproteins; type: binding, Limax flavus

Molecule	Inhibition (%) Purified LFA ([1]; carbohydrate 25.0 mM)	Inhibition (%) AS-40-80 Fraction ([2]; carbohydrate 25.0 mM)	Inhibition of hemagglutination by the 40-80% ammonium sulfate fraction (in words) [2]	also measured
OC[C@H]1OC(O)[C@H](O)[C@@H](O)[C@H]1O (single isomer, unassigned) [D (+) Galactose]	0%	0%	–	–
OC[C@H]1OC(O)[C@@H](O)[C@@H](O)[C@@H]1O (single isomer, unassigned) [D (+) Mannose]	0%	0%	–	–
OC1OC[C@@H](O)[C@H](O)[C@H]1O (single isomer, unassigned) [D (+) Xylose]	0%	0%	–	–
OC[C@H]1OC(O)[C@H](O)[C@@H](O)[C@@H]1O (single isomer, unassigned) [D (-) Glucose]	0%	0%	–	–
O=C(O)[C@H]1OC(O)[C@H](O)[C@@H](O)[C@@H]1O (single isomer, unassigned) [D (-) Glucuronic Acid]	0%	0%	–	–
N[C@H]1C(O)O[C@H](CO)[C@H](O)[C@@H]1O (stereo partly drawn) [Galactosamine]	0%	45%	inhibition of hemagglutination	–
N[C@H]1C(O)O[C@H](CO)[C@@H](O)[C@@H]1O (stereo partly drawn) [Glucosamine]	0%	19%	inhibition of hemagglutination	–
OC[C@H]1O[C@@H](O[C@H]2[C@H](O)[C@@H](O)C(O)O[C@@H]2CO)[C@H](O)[C@@H](O)[C@H]1O (stereo partly drawn) [Lactose]	0%	0%	–	–
CC(=O)N[C@H]1C(O)O[C@H](CO)[C@H](O)[C@@H]1O (stereo partly drawn) [N--Acetyl-D-Galactosamine]	–	–	inhibition of hemagglutination	Inhibition (%) Purified LFA ([1]; carbohydrate 10.0 mM): 0%; Inhibition (%) AS-40-80 Fraction ([2]; carbohydrate 10.0 mM): 75%
CC(=O)N[C@H]1C(O)O[C@H](CO)[C@@H](O)[C@@H]1O (stereo partly drawn) [N--Acetyl-D-Glucosamine]	–	–	inhibition of hemagglutination	Inhibition (%) Purified LFA ([1]; carbohydrate 10.0 mM): 0%; Inhibition (%) AS-40-80 Fraction ([2]; carbohydrate 10.0 mM): 53%
CC(=O)N[C@H]1[C@H]([C@H](O)[C@H](O)CO)OC(O)(C(=O)O)C[C@@H]1O (stereo partly drawn) [N--Acetylneuraminic Acid, N-acetylneuraminic acid]	–	–	inhibition of hemagglutination	Inhibition (%) Purified LFA ([1]; carbohydrate .05 mM): 1%; Inhibition (%) Purified LFA ([1]; carbohydrate .10 mM): 28%; Inhibition (%) Purified LFA ([1]; carbohydrate .15 mM): 54%; Inhibition (%) Purified LFA ([1]; carbohydrate .20 mM): 100%; IC50 [1]: 130 µM; Ability to inhibit hemagglutination by purified slug lectin (in words) [1]: effective; Inhibition (%) AS-40-80 Fraction ([2]; carbohydrate .05 mM): 6%; Inhibition (%) AS-40-80 Fraction ([2]; carbohydrate .10 mM): 17%; Inhibition (%) AS-40-80 Fraction ([2]; carbohydrate .15 mM): 27%; Inhibition (%) AS-40-80 Fraction ([2]; carbohydrate .20 mM): 94%
O=C(CO)N[C@H]1[C@H]([C@H](O)[C@H](O)CO)OC(O)(C(=O)O)C[C@@H]1O (stereo partly drawn) [N--Glycolyneuraminic Acid, N-glycolylneuraminic acid]	–	–	inhibition of hemagglutination	Inhibition (%) Purified LFA ([1]; carbohydrate 1.0 mM): 85%; Inhibition (%) Purified LFA ([1]; carbohydrate .25 mM): 0%; Inhibition (%) Purified LFA ([1]; carbohydrate .50 mM): 2%; Inhibition (%) Purified LFA ([1]; carbohydrate .75 mM): 14%; IC50 [1]: 900 µM; IC50 ([1]; listed as GlyNeu): 810 µM; Ability to inhibit hemagglutination by purified slug lectin (in words) [1]: effective; Inhibition (%) AS-40-80 Fraction ([2]; carbohydrate 1.0 mM): 88%; Inhibition (%) AS-40-80 Fraction ([2]; carbohydrate .25 mM): 3%; Inhibition (%) AS-40-80 Fraction ([2]; carbohydrate .50 mM): 20%; Inhibition (%) AS-40-80 Fraction ([2]; carbohydrate .75 mM): 56%
OC[C@H]1O[C@@](CO)(O[C@H]2O[C@H](CO)[C@@H](O)[C@H](O)[C@H]2O)[C@@H](O)[C@@H]1O [Sucrose]	0%	0%	–	–
O[C@@H]1[C@@H](O)[C@@H](O)CO[C@H]1O [α (+) Arabinose]	0%	0%	–	–
C[C@@H]1O[C@@H](O)[C@@H](O)[C@H](O)[C@@H]1O [α-L(-) Fucose]	0%	0%	–	–
CO[C@H]1O[C@H](CO)[C@@H](O)[C@H](O)[C@H]1O [α-Methyl-D-Glucoside]	0%	0%	–	–
CO[C@H]1O[C@H](CO)[C@@H](O)[C@H](O)[C@@H]1O [α-Methyl-D-Mannose]	0%	0%	–	–
B1	–	–	–	Precipitin lines in double diffusion against slug lectin after asialylation (slug lectin; asialylated sialoprotein): lost; Precipitin lines in double diffusion against slug lectin (slug lectin; native sialoprotein): yielded precipitin lines; Inhibitory activity on slug lectin hemagglutination after asialylation ([1]; after incubation at 80° for one hour in 0.1N H2SO4): complete loss of inhibitory activity

— patent publication US4457865A, “Sialic acid specific slug lectin” (Research Corporation, priority 1982, dated 1984)
